Read-outs that look alike come from different tables or passages of the source.
Key:
[1] = tested on: iRFP L. infantum amastigotes infecting mouse splenocytes; assay: Antileishmanial activity on iRFP L. infantum amastigotes in ex vivo murine splenic explants; assay type: cell-based, Leishmania infantum; details: for EC50: Leishmania infantum, Splenocyte, splenic-infecting iRFP L. infantum amastigotes, 72 h, 37 °C, read-out: EC50 (μM) L. infantum amastigotes; for SI (Selectivity Index): CC50 (splenocytes)/EC50 (amastigotes)
Protocol: Five-week BALB/c female mice infected intraperitoneally with 1.5 × 10^9 metacyclic iRFP L. infantum promastigotes were sacrificed to eviscerate their spleens, which were processed to obtain a suspension of primary splenocytes. Briefly, freshly dissected spleens were washed with cold phosphate-buffered saline (PBS), cut in small pieces and incubated for 20 min with 5 mL of 2 mg/mL collagenase D (Sigma) prepared in buffer (10 mM HEPES, pH 7.4, 150 mM NaCl, 5 mM KCl, 1 mM MgCl2 and 1.8 mM CaCl2). Then, the cell suspension was passed through a 100 μm cell strainer, harvested by centrifugation (500×g for 7 min at 4 °C), washed twice with PBS, and resuspended in RPMI medium (Gibco) supplemented with 10 mM HEPES, 1 mM sodium pyruvate, 1xRPMI 1640 vitamin mix, 10% (v/v) FBS, 50 U/mL penicillin and 50 μg/mL streptomycin. The cell suspension was cultured in 384-well optical bottom black plates (Thermo Scientific) at 37 °C under 5% CO2 atmosphere.
(§1) The antileishmanial activity of the compounds was tested both in promastigotes and in amastigotes infecting mouse splenocytes. For this purpose, 384-well optical bottom black plates (Thermo Scientific) were seeded either with free-living iRFP L. infantum promastigotes or with splenic explants infected with iRFP L. infantum amastigotes, which were incubated at 26 °C or 37 °C, respectively. The viability of both iRFP L. infantum stages was measured by recording the fluorescence emitted by viable cells at 708 nm in an Odyssey (Li-Cor) infrared imaging system after a 72-h period of incubation with different concentrations of the compounds. Dose-response curves were obtained by plotting the infrared fluorescence emission of viable parasites vs. different concentrations of testing compounds and were fitted by nonlinear analysis using the Sigma-Plot 10.0 statistical package. The reduction of infrared emission with respect to the negative control was used to determine the 50% effective concentration to kill the parasites (EC50). Both controls and treated groups were tested with DMSO (drug vehicle) concentrations below 0.1%. All compounds and controls were assayed in triplicate.

[2] = tested on: iRFP L. infantum promastigotes; assay: Antileishmanial activity on free-living iRFP L. infantum promastigotes (infrared fluorescence viability); assay type: cell-based; details: Leishmania infantum, 72 h, 26 °C
Protocol: Histone phosphorylation assays were performed in promastigotes of L. infantum BCN 150 strain, whereas the antiparasitic activity of the compounds was assessed on the transgenic strain that constitutively expresses the irfp gene encoding the infrared iRFP protein (iRFP L. infantum strain) ([Calvo-Álvarez et al., 2015]), which is derived from L. infantum BCN 150. Both strains were grown at 26 °C in M-199 medium (Gibco) supplemented with 25 mM HEPES pH 7.2, 0.1 mM adenine, 0.0005% (w/v) hemin, 2 μg/mL biopterin, 0.0001% (w/v) biotin, 10% (v/v) heat-inactivated fetal bovine serum (FBS) and an antibiotic cocktail comprising 50 U/mL penicillin and 50 μg/mL streptomycin.
as §1

[3] = Cytotoxicity on uninfected mouse splenocytes (Alamar Blue); assay type: cell-based; details: BALB/c, freshly isolated uninfected mouse splenocytes, non-infected mouse splenocytes, read-out: CC50 (μM) Murine Splenocytes
Protocol: Finally, the cytotoxicity of the compounds was assessed on freshly-isolated mouse splenocytes, which were obtained from uninfected BALB/c mice according to the protocol previously described. Viability of uninfected splenocytes was used to determine the cytotoxic concentration 50 (CC50) by means of the Alamar Blue staining method, according to manufacturer's recommendations (Invitrogen). Selectivity index (SI) for each compound was calculated as the ratio between the CC50 value obtained for splenic cells and the EC50 value for amastigotes.

[4] = tested on: L. infantum promastigotes; assay: Cell cycle analysis by flow cytometry (propidium iodide); assay type: cell-based, Leishmania infantum; details: 1 μM single dose, 0, 8, 24, 48 h
Protocol: One million promastigotes untreated or treated with 1 μM of different indenoisoquinolines were harvested by centrifugation after 0, 8, 24 and 48 h exposure. Promastigotes were washed twice with PBS and fixed by 1 h incubation with 70% methanol at 4 °C. After incubation, cells were centrifuged, washed again with PBS and resuspended in 0.5 mL of citrate buffer (45 mM MgCl2, 20 mM MOPS, 30 mM sodium citrate, 0.1% Triton X-100, pH = 7). Finally, samples with RNAase (50 μg/mL) and propidium iodide ([…]) were incubated at 37 °C during 30 min and analyzed at 589 nm by flow cytometry (Cyan ADP Dako).

[5] = target: T1, human Top IB (hTopIB) (Homo sapiens, UniProt P11387); assay: Relaxation of supercoiled pSK DNA by recombinant hTopIB; assay type: biochemical
T1 construct: made in house
T1 sequence (P11387 1-765): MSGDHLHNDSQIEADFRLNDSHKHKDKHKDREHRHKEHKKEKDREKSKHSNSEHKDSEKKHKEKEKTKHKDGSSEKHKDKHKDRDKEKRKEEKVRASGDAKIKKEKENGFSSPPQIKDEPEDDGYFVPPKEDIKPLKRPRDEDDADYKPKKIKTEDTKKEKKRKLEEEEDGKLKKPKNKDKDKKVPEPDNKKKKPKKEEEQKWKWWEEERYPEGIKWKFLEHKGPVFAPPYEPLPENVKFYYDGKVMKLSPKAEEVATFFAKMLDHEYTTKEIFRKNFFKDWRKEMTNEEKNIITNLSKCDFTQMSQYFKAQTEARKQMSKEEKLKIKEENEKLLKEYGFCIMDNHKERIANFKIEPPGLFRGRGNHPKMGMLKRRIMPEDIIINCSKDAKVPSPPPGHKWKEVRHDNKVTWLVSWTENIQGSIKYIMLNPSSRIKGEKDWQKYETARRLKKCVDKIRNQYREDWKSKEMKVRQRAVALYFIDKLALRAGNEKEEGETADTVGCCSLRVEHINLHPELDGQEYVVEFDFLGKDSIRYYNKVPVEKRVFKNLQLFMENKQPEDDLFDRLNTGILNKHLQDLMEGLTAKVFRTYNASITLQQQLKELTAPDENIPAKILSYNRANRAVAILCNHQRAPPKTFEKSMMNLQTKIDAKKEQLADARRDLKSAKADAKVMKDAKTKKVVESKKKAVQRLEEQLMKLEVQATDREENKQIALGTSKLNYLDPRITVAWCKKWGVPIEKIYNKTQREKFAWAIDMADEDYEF
Protocol: (§2) Expression and purification of LTopIB and hTopIB were carried out according to a previously standardized protocol ([Villa et al., 2003]). The effect of indenoisoquinolines (compounds 1 to 20) on recombinant LTopIB and hTopIB was determined by measuring the relaxation of negatively supercoiled pBluescript-SK DNA plasmid (pSK). Briefly, in a total volume of 20 μL, 100 U of recombinant TopIB were incubated with 0.5 μg of pSK DNA in 10 mM Tris-HCl buffer (pH 7.5), 5 mM MgCl2, 5 mM dithiothreitol (DTT), 0.1 mM EDTA, […] bovine serum albumin, and 150 mM KCl. Different concentrations of indenoisoquinolines were also added. Following a 4-min incubation period at 25 °C, reactions were stopped with 1% (w/v) SDS, and incubated for one extra hour at 37 °C in the presence of 1 mg/mL proteinase K. Subsequently, samples were extracted with 1 vol phenol-chloroform mixture and were loaded on a 1% agarose gel containing 0.1 μg/mL ethidium bromide. The gel was run for 16 h at 4 V/cm, and the images were acquired using a G-Box system (Syngene, United Kingdom).

[6] = tested on: Leishmania topoisomerase IB (LTopIB); assay: Relaxation of supercoiled pSK DNA by recombinant LTopIB; assay type: biochemical
Protocol: as §2

[7] = tested on: histone H2A (Thr128) in L. infantum promastigotes; assay: Histone H2A phosphorylation (γH2A) by Western blot; assay type: cell-based, Leishmania infantum; details: 10 μM, 0, 15, 60, 120 min
Protocol: To detect H2A phosphorylation by L. infantum promastigotes, parasites in exponential growing phase (5–6 x 10^6 cells/mL) were incubated at 26 °C with CPT derivatives and indenoisoquinolines at a final concentration in the supplemented 199 standard medium of 10 μM. Control cells were treated with the drug vehicle DMSO using concentrations below 0.1%. After 0, 15, 60 and 120-min incubations, promastigotes were harvested by centrifugation, washed twice in PBS and the pellet resuspended in lysis buffer containing 50 mM Tris (pH:7), 50 mM NaCl, 20 mM NaF, 0.1% Tween 20 and 2x protease inhibitors (PIERCE™ protease inhibitor mini tablets). Twenty micrograms of the different extracts were loaded onto 15% SDS-PAGE gels, electrophoresed and transferred to PVDF membranes (Immobilon-FL, Millipore) using a mini trans-blot electrophoretic transfer cell (Bio-Rad). Polyclonal γH2A antisera were used at a 1:2000 dilution and secondary goat anti-rabbit IgG IRDye680 (Li-Cor Biosciences) was used at a 1:15000 dilution. The peptide competition assay was done incubating the polyclonal γH2A antisera with 50 ng/mL of the appropriate peptide (with and without phosphorylation at Thr residue) in blocking buffer for 1 h at room temperature before blotting. Loading control was performed using a monoclonal α tubulin mouse antibody at 2 μg/mL (final concentration) and a goat anti-mouse IgG IRDye 800 (Li-Cor Biosciences) as secondary antibody. Bands were visualized in an Odissey® (Li-Cor Biosciences) infrared detection facility. The quantification of γH2A signal was done with Bio-Rad Quantity One Analysis Software.

[8] = tested on: iRFP L. infantum amastigotes infecting mouse splenocytes; details: ref Prada et al., 2013; cited from earlier work
[9] = tested on: TopIB-DNA complexes in L. infantum promastigotes; assay: SDS/K-DNA precipitation (in situ cleavage complex formation); assay type: cell-based, Leishmania infantum; details: 30 min exposure, promastigotes
Protocol: In order to measure the fragmentation of DNA induced by Top poisons, L. infantum promastigotes, previously labeled with 0.5 mCi/mL [2–^14C] thymidine for 24 h, were exposed to different concentrations of indenoisoquinolines for 30 min, followed by precipitation with SDS/KCl, according to the method described previously ([Balaña-Fouce et al., 2012]). DNA fragmentation was determined as the percentage of total labeled DNA, and was calculated as follows: [(dpm in SDS/KCl drug - dpm in SDS/KCl solvent)/(dpm total incorporation)] x 100. Each experiment was run at least in triplicate.

SMILES	EC50 [1] [µM]	EC50 [2] [µM]	CC50 [3] [µM]	effect on cell cycle of promastigotes [4]	γH2A signal (H2A phosphorylation), Western blot [7]	SI (Selectivity Index) [1]	other results
COc1ccc2c(c1)C(=O)c1c-2n(CCCN)c(=O)c2cc([N+](=O)[O-])ccc12 [Compound 3]	> 10	0.2 ± 0.01	0.41 ± 0.19	arrested the cell cycle of promastigotes in S phase			hTopIB inhibition ([5]; Table 1): +++ (inhibition at 1 μM); LTopIB inhibition ([6]; Table 1): ++ (inhibition at 10 μM)
CCc1c2c(nc3ccc(O)cc13)-c1cc3c(c(=O)n1C2)COC(=O)[C@]3(O)CC [SN38]					clear increase in the intensity of the 14-kDa band		
CC[C@@]1(O)C(=O)OCc2c1cc1n(c2=O)Cc2cc3c(CN(C)C)c(O)ccc3nc2-1 [TPT, topotecan]					clear increase in the intensity of the 14-kDa band		
CC[C@@]1(O)C(=O)OCc2c1cc1n(c2=O)Cc2cc3ccccc3nc2-1 [CPT, camptothecin]					clear increase in the intensity of the 14-kDa band		EC50 [8]: 30 nM
NCCCn1c2c(c3ccc([N+](=O)[O-])cc3c1=O)C(=O)c1cc(F)ccc1-2 [Compound 7]	0.04	1.28 ± 0.08	0.3 ± 0.07	arrested the cell cycle of promastigotes in S phase		8.4	hTopIB inhibition ([5]; Table 1): +++ (inhibition at 1 μM); LTopIB inhibition ([6]; Table 1): ++ (inhibition at 10 μM); maximum percentage of SDS/K-DNA precipitable complexes [9]: 33%
COc1cnc2c(c1)C(=O)c1c-2n(CCCN2CCOCC2)c(=O)c2ccc(OC)cc12 [Compound 17]	0.27 ± 0.08	2.92 ± 0.44	7.84 ± 0.77	arrested the cell cycle of promastigotes in S phase		29.0	hTopIB inhibition ([5]; Table 3): +++ (inhibition at 1 μM); LTopIB inhibition ([6]; Table 3): +++ (inhibition at 1 μM)
COc1ccc2c(c1)C(=O)c1c-2n(CCCn2ccnc2)c(=O)c2cc([N+](=O)[O-])ccc12 [Compound 12]	0.01	> 10	0.33 ± 0.05	arrested the cell cycle of promastigotes in S phase		33	hTopIB inhibition ([5]; Table 2): +++ (inhibition at 1 μM); LTopIB inhibition ([6]; Table 2): ++ (inhibition at 10 μM)
COc1cnc2c(c1)C(=O)c1c-2n(CCCN2CCOCC2)c(=O)c2cc(OC)c(OC)cc12 [Compound 18]	0.13 ± 0.01	0.53 ± 0.07	3.81 ± 0.51	arrested the cell cycle of promastigotes in S phase		29.3	hTopIB inhibition ([5]; Table 3): ++ (inhibition at 10 μM); LTopIB inhibition ([6]; Table 3): ++ (inhibition at 10 μM)

Source: paper PMC6796659, “Topoisomerase IB poisons induce histone H2A phosphorylation as a response to DNA damage in Leishmania infantum” (International Journal for Parasitology: Drugs and Drug …, 2019)
